In one series the target is T1, mNaV1.7 (Mus musculus, UniProt Q62205).
T1 construct: host or cells: HEK293
Description: Whole-cell patch-clamp (PatchXpress), mNaV1.7. As to conditions: HEK293, pH 7.4, holding −120 mV, 20 ms test pulse 0 mV, mean ± SEM, read-out: pIC50 at mouse NaV1.7 (converted). In kind it is cell-based. A general note: The patch-clamp technique gives a direct electrical read-out from membranes.

The next series has as its target T2, rKV2.1 (Rattus norvegicus, UniProt P15387).
T2 construct: expressed in transfected cells; host or cells: Xenopus laevis oocytes
Description: Two-electrode voltage-clamp in Xenopus oocytes, wild-type rKV2.1. In kind it is cell-based. As to conditions: Xenopus laevis oocytes, pH 7.6, 22 °C, 0.1% BSA. In general terms: In two-electrode clamp one electrode senses voltage and the other passes current.

The target of a further series is T3, hNaV1.3 (Homo sapiens, UniProt Q9NY46).
T3 construct: host or cells: HEK293
Description: cell-based. Particulars: whole cell electrophysiology, HEK293; pH 7.4, 0.1% BSA; holding −80 mV, test −20 mV; incubation 5–40 min; mean ± SEM, n = 3–9 cells; read-out: pIC50 at hNaV1.3 (converted).

For the next series, the system named is NaV1.7. Particulars: 0.3–3 mg/kg i.p., mice. The method, then:
For behavioural assessment we used adult male C57BL/6 J mice or Sprague Dawley rats aged 5–8 weeks. Animals were housed in groups of 2–4 per cage, under 12 h light-dark cycles with standard rodent chow and water ad libitum. All assessments were performed by a blinded investigator unaware of the treatment each animal received. Ethical approval for in vivo experiments in animals was obtained from the University of Queensland, University of Sydney or United Kingdom Home Office animal ethics committee. Experiments involving animals were conducted in accordance with the International Association for the Study of Pain Guidelines for the Use of Animals in Research and the Australian Code of Practice for the Care and Use of Animals for Scientific Purposes, 8th edition (2013).

Another series addresses α7 nAChR (Homo sapiens, UniProt P36544). Description: FLIPR calcium responses in SH-SY5Y cells, α7 nAChR. In kind it is cell-based. As to conditions: FLIPR Tetra, choline with PNU120596, 0.1–10 μM, 5 min pre-treatment.
The target of another series is α3 nAChR (Homo sapiens, UniProt P32297). Description: FLIPR calcium responses in SH-SY5Y cells, α3 nAChR. In kind it is cell-based. Particulars: FLIPR Tetra, nicotine 30 μM, 0.1–10 μM, 5 min pre-treatment.
The next series concerns the target T4, rNaV1.7 (Rattus norvegicus, UniProt O08562).
T4 construct: expressed in transfected cells; host or cells: HEK293
The series can be described thus: Whole-cell patch-clamp (QPatch-16), rNaV1.7. Type of series: cell-based. As to conditions: QPatch-16, HEK293; pH 7.4, 0.1% BSA; holding −80 mV, test −20 mV; mean ± SEM; read-out: pIC50 at rat NaV1.7 (converted).

The subject of series [1] is motor performance in rats. In kind it is in vivo, rat (Sprague Dawley). The protocol: FCA was administered undiluted in a volume of 150 μL by i.pl injection in rats. Behavioural assessment was performed 3 days post-injection of FCA. For intrathecal administration, a polyethylene lumbar catheter was inserted into the intrathecal space between vertebrae L4–L5. […] Mechanical paw withdrawal thresholds were determined using manual von Frey with a series of calibrated filaments 0.4–15.1 g (Stoelting Co., Wood Dale, USA) using the up-down method. Paw withdrawal latency to a thermal stimulus was determined using the Hargreaves test (Ugo Basile, Camerio VA, Italy). Motor co-ordination was assessed using an accelerating rotarod (Ugo Basile). Latency to fall was recorded in seconds, with a maximal cut off of 300 s. At the completion of experiments, catheter placement was checked by injection of lignocaine (2%, 10 μL) and observation of rapid bilateral hind limb paralysis.

The target of the next series is T5, hNaV1.6 (Homo sapiens, UniProt Q9UQD0).
T5 construct: host or cells: HEK293
The series can be described thus: cell-based. As to conditions: whole cell electrophysiology, HEK293; pH 7.4, 0.1% BSA; holding −80 mV, test −20 mV; incubation 5–40 min; mean ± SEM, n = 3–9 cells; read-out: pIC50 at hNaV1.6 (converted).

For the next series, the target named is T6, hNaV1.9 (Homo sapiens, UniProt Q9UI33).
T6 construct: host or cells: HEK293
The series can be described thus: cell-based. As to conditions: PatchXpress, HEK293. An excerpt: Data were plotted and analyzed using GraphPad Prism, version 6.0. For concentration-response curves, a four-parameter Hill equation with variable Hill coefficient was fitted to the data. […] Data are presented as mean ± SEM.

The target in another series is T7, hNaV1.4 (Homo sapiens, UniProt P35499).
T7 construct: host or cells: HEK293
The series can be described thus: cell-based. Particulars: whole cell electrophysiology, HEK293; pH 7.4, 0.1% BSA; holding −80 mV, test −20 mV; incubation 5–40 min; mean ± SEM, n = 3–9 cells; read-out: pIC50 at hNaV1.4 (converted).

The next series concerns the target T8, hNaV1.2 (Homo sapiens, UniProt Q99250).
T8 construct: host or cells: HEK293
Description: cell-based. Particulars: whole cell electrophysiology, HEK293; pH 7.4, 0.1% BSA; holding −80 mV, test −20 mV; incubation 5–40 min; mean ± SEM, n = 3–9 cells; read-out: pIC50 at hNaV1.2 (converted).

The target of the next series is T9, hNaV1.5 (Homo sapiens, UniProt Q14524).
T9 construct: host or cells: HEK293
The series can be described thus: cell-based. As to conditions: whole cell electrophysiology, HEK293; pH 7.4, 0.1% BSA; holding −80 mV, test −20 mV; incubation 5–40 min; mean ± SEM, n = 3–9 cells; read-out: pIC50 at hNaV1.5 (converted).

For series [2] the following is noted: precluded chronic testing.
A further series has as its target T10, hNaV1.8 (Homo sapiens, UniProt Q9Y5Y9).
T10 construct: host or cells: CHO
Description: cell-based. As to conditions: whole cell patch-clamp.

In a further series the target is T11, hNaV1.1 (Homo sapiens, UniProt P35498).
T11 construct: host or cells: HEK293
Description: cell-based. Particulars: whole cell electrophysiology, HEK293; pH 7.4, 0.1% BSA; holding −80 mV, test −20 mV; incubation 5–40 min; mean ± SEM, n = 3–9 cells; read-out: pIC50 at hNaV1.1 (converted).

The structures appear in SMILES notation.

T9 sequence (Q14524 whole entry): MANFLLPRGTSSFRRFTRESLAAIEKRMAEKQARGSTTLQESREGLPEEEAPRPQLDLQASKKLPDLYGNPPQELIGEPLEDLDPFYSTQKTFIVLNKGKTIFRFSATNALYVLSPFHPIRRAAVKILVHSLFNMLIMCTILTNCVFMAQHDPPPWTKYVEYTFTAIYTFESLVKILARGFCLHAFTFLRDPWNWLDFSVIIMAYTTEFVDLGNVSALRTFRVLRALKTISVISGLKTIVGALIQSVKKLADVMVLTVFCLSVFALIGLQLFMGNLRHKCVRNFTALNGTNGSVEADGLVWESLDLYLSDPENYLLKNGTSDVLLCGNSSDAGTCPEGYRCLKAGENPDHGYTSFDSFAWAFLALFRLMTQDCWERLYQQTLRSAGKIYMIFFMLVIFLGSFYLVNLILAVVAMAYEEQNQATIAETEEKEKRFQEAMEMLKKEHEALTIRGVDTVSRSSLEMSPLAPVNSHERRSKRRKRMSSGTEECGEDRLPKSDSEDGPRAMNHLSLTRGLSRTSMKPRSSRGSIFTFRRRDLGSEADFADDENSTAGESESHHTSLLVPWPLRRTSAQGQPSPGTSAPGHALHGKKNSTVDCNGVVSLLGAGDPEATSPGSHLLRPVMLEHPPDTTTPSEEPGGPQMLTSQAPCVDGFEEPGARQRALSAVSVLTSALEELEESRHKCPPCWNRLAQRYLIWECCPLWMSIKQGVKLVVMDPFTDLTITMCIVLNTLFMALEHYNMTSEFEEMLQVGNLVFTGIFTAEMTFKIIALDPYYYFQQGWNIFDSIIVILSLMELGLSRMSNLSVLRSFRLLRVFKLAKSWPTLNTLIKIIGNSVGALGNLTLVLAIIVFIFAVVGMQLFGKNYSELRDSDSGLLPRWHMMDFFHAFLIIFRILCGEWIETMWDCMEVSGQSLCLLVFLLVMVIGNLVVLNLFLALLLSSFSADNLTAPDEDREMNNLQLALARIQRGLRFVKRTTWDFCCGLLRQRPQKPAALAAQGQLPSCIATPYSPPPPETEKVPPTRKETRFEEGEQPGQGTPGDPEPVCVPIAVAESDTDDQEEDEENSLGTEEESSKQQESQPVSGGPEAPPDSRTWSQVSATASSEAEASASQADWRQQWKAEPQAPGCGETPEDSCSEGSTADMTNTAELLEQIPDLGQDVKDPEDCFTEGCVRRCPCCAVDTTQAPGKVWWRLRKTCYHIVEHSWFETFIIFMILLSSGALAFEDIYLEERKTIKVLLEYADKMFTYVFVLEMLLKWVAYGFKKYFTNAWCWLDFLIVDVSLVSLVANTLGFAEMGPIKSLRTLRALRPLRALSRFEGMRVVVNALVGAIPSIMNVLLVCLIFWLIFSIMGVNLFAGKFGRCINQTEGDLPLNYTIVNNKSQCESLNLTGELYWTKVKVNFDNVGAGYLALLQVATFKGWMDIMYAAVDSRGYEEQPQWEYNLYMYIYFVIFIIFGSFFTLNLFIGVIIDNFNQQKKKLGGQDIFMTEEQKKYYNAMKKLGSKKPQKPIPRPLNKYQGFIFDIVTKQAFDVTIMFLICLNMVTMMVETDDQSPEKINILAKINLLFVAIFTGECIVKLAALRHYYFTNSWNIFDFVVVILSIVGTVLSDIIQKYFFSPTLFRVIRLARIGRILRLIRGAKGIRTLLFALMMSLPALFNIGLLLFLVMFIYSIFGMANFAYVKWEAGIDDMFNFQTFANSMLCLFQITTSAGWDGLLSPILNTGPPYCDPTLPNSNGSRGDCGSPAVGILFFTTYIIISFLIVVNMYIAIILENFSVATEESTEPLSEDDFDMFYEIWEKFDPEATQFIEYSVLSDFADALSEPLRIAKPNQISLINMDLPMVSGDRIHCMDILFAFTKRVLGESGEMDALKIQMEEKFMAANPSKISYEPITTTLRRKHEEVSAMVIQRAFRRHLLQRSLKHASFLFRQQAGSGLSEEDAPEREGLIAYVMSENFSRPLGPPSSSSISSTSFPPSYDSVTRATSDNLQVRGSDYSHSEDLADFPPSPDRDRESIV
T8 sequence (Q99250 whole entry): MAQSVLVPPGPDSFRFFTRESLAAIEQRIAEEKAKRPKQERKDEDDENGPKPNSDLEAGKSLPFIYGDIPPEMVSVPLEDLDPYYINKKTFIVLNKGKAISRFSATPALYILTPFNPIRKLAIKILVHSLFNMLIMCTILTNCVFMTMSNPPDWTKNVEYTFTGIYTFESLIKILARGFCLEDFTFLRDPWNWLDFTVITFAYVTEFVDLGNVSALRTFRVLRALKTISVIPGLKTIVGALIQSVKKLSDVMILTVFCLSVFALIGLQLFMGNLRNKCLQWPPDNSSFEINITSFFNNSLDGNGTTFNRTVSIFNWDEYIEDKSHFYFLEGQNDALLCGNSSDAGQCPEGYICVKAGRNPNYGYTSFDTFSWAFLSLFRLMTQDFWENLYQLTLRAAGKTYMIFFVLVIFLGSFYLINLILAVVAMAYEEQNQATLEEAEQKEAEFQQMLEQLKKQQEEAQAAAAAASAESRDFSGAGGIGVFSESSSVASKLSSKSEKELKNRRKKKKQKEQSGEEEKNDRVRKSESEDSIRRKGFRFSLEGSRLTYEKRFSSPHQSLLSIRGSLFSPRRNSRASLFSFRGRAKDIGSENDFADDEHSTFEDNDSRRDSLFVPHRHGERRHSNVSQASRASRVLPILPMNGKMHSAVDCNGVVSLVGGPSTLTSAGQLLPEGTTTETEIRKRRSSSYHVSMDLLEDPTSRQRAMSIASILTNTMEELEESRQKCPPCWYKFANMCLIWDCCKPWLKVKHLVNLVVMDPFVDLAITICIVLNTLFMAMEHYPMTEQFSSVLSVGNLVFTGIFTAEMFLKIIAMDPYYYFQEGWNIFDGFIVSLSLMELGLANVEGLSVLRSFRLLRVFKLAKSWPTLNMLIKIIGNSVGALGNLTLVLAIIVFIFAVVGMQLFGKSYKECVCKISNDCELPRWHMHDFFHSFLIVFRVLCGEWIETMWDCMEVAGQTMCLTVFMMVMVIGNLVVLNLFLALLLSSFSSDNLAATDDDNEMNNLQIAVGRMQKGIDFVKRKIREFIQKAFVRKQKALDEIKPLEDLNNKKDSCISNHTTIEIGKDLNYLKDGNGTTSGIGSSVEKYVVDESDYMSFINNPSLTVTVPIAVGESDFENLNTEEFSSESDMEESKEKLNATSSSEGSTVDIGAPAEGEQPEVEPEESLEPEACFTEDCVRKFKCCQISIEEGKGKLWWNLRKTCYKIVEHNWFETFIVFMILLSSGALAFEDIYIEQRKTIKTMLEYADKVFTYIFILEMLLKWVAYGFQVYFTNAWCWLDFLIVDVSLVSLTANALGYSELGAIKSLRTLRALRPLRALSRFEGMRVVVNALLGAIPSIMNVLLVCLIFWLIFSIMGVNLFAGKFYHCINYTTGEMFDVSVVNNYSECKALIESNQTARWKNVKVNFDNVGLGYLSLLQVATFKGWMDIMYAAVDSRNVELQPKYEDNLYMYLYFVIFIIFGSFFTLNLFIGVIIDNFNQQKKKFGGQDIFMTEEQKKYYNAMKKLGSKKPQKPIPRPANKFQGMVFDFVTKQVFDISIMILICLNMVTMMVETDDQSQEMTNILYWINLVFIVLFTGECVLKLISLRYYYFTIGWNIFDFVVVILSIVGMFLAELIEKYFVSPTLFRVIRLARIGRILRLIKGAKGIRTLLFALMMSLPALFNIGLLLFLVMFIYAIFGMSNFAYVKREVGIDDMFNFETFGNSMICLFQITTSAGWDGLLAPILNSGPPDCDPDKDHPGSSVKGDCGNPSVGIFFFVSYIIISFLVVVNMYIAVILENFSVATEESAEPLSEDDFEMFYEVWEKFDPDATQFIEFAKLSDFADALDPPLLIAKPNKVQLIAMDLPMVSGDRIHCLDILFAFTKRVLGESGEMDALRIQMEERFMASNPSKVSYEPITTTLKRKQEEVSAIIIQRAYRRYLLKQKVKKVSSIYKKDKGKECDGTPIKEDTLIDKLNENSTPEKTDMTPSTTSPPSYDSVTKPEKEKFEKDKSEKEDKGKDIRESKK
α3 nAChR, sequence (P32297 32-505): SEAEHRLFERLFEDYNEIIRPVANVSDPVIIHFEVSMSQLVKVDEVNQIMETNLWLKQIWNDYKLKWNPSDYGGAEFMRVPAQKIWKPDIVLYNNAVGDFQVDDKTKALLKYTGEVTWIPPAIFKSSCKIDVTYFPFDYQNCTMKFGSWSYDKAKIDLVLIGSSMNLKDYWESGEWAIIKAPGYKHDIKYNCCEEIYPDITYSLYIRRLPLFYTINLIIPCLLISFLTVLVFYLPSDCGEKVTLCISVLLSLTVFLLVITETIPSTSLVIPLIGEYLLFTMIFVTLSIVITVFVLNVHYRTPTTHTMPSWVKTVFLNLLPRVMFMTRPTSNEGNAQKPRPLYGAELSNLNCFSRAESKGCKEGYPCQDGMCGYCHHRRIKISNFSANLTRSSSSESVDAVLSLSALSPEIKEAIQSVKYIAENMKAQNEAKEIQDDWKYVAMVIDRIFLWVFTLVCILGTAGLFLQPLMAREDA
α7 nAChR, sequence (P36544 23-502): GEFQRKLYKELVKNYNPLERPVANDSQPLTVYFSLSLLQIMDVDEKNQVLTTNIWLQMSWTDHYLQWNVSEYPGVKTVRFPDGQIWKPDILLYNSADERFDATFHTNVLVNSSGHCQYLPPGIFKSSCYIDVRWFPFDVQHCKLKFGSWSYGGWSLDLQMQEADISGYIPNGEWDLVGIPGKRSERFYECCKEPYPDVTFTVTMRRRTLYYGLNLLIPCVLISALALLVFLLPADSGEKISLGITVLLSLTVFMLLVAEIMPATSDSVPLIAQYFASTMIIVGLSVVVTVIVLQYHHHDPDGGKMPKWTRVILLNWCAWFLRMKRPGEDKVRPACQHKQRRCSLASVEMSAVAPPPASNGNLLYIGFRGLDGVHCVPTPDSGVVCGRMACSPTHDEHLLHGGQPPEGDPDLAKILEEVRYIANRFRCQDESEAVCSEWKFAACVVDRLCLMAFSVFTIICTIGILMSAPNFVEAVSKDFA

As for `CSCC[C@@H]1NC(=O)[C@H](Cc2ccc(O)cc2)NC(=O)[C@H](CCCNC(=N)N)NC(=O)[C@@H](NC(=O)[C@@H](N)CC(=O)O)CSSC[C@@H]2NC(=O)[C@@H]3CSSC[C@@H](C(=O)N[C@@H](C)C(=O)N[C@@H](Cc4c[nH]c5ccccc45)C(=O)N[C@@H](CC(=O)O)C(=O)N[C@@H](Cc4ccccc4)C(=O)N[C@H](C(=O)N[C@@H](Cc4ccccc4)C(=O)N[C@H](C(=O)O)[C@@H](C)O)[C@@H](C)O)NC(=O)[C@H](Cc4ccc(O)cc4)NC(=O)[C@H](CCCCN)NC(=O)[C@H](CCSC)NC(=O)[C@H](CCCCN)NC(=O)[C@H](CCCNC(=N)N)NC(=O)[C@H](CCCCN)NC(=O)[C@H](CSSC[C@H](NC(=O)[C@H](CC(=O)O)NC(=O)CNC(=O)[C@H](Cc4ccccc4)NC1=O)C(=O)N[C@@H](CCC(=O)O)C(=O)N[C@@H](CCCCN)C(=O)N[C@@H](CC(=O)O)C(=O)N[C@@H](CCC(=O)O)C(=O)N[C@@H](CC(=O)O)C(=O)N3)NC(=O)CNC(=O)[C@H](CC(C)C)NC(=O)[C@H](Cc1cnc[nH]1)NC(=O)[C@H](CCCCN)NC2=O` [Pn3a, μ-theraphotoxin-Pn3a], the IC50 at mNaV1.7 is 4.37 nM; on rKV2.1, over 300 nM; at hNaV1.3, 209 nM; on α7 nAChR, over 10000 nM; at α3 nAChR it was over 10000 nM; on rNaV1.7, 1.48 nM. In addition, the IC50 was 129 nM on hNaV1.6; 2430 nM against hNaV1.9; 145 nM on hNaV1.4; 123 nM on hNaV1.2; 794 nM at hNaV1.5; 49900 nM at hNaV1.8. Further, the IC50 on hNaV1.1 was 37.2 nM. The adverse effects entry in the series with NaV1.7 is given as “absence of adverse effects”. Also, in [1] (0.3 nmoles intrathecal, control 88 ± 7%, P > 0.05, unpaired t-test, n = 4–9), the “Rotarod % Baseline” value is recorded as 91 ± 11%. Besides, the motor effect result in series [1] (1 nmole intrathecal, rats, data not shown) is “motor impairment was observed”. For the same molecule, the pharmacokinetics result in series [2] is “poor pharmacokinetics”.

Values taken from paper PMC5247677 (Scientific Reports, 2017).
